Test results as given in ChEMBL document CHEMBL4376823, “The discovery of a potent and selective third-generation EGFR kinase inhibitor as a therapy for EGFR L858R/T790M double mutant non-small cell lung cancer” (Eur J Med Chem, 2019).

Tests used:
[1] = tested on: NCI-H1975; test: Induction of apoptosis in human NCI-H1975 cells assessed as viable cells at 25 nM incubated for 24 hrs by propidium iodide and annexin-V FITC staining based flow cytometry (reference value: 98.82 %); format: functional; conditions: NCI-H1975, 24 h, read-out: Activity
[2] = tested on: NCI-H1975; test: Induction of apoptosis in human NCI-H1975 cells assessed as necrotic cells at 5 nM incubated for 24 hrs by propidium iodide and annexin-V FITC staining based flow cytometry (reference value: 0.01 %); format: functional
[3] = tested on: NCI-H1975; test: Induction of apoptosis in human NCI-H1975 cells assessed as viable cells at 5 nM incubated for 72 hrs by propidium iodide and annexin-V FITC staining based flow cytometry (reference value: 97.55 %); format: functional; conditions: NCI-H1975, 72 h, read-out: Activity
[4] = tested on: NCI-H1975; test: Induction of apoptosis in human NCI-H1975 cells assessed as late apoptotic cells at 50 nM incubated for 48 hrs by propidium iodide and annexin-V FITC staining based flow cytometry (reference value: 0.23 %); format: functional
[5] = tested on: NCI-H1975; test: Induction of apoptosis in human NCI-H1975 cells assessed as early apoptotic cells at 25 nM incubated for 24 hrs by propidium iodide and annexin-V FITC staining based flow cytometry (reference value: 0.94 %); format: functional
[6] = AUC (0 to infinity) in ICR mouse at 10 mg/kg, po; format: ADME, organism-based; design: dose 10 mg/kg, route oral, time infinity; conditions: in vivo
[7] = tested on: NCI-H1975; test: Induction of apoptosis in human NCI-H1975 cells assessed as late apoptotic cells at 25 nM incubated for 48 hrs by propidium iodide and annexin-V FITC staining based flow cytometry (reference value: 0.23 %); format: functional
[8] = Half life in ICR mouse at 10 mg/kg, po; format: ADME, organism-based; conditions: in vivo
[9] = Selectivity index, ratio of IC50 for human HK2 cells to IC50 for human NCI-H1975 cells expressing EGFR T790M/L858R mutant
[10] = target: Epidermal growth factor receptor (Homo sapiens, UniProt P00533, L858R); test: Inhibition of recombinant human GST-tagged EGFR L858R mutant expressed in baculovirus expression system using Tyr 04 as substrate incubated for 1 hr by Z'-LYTE assay
Chain of Epidermal growth factor receptor (Homo sapiens, UniProt P00533, L858R) (P00533 25-1210 L858R limits assumed): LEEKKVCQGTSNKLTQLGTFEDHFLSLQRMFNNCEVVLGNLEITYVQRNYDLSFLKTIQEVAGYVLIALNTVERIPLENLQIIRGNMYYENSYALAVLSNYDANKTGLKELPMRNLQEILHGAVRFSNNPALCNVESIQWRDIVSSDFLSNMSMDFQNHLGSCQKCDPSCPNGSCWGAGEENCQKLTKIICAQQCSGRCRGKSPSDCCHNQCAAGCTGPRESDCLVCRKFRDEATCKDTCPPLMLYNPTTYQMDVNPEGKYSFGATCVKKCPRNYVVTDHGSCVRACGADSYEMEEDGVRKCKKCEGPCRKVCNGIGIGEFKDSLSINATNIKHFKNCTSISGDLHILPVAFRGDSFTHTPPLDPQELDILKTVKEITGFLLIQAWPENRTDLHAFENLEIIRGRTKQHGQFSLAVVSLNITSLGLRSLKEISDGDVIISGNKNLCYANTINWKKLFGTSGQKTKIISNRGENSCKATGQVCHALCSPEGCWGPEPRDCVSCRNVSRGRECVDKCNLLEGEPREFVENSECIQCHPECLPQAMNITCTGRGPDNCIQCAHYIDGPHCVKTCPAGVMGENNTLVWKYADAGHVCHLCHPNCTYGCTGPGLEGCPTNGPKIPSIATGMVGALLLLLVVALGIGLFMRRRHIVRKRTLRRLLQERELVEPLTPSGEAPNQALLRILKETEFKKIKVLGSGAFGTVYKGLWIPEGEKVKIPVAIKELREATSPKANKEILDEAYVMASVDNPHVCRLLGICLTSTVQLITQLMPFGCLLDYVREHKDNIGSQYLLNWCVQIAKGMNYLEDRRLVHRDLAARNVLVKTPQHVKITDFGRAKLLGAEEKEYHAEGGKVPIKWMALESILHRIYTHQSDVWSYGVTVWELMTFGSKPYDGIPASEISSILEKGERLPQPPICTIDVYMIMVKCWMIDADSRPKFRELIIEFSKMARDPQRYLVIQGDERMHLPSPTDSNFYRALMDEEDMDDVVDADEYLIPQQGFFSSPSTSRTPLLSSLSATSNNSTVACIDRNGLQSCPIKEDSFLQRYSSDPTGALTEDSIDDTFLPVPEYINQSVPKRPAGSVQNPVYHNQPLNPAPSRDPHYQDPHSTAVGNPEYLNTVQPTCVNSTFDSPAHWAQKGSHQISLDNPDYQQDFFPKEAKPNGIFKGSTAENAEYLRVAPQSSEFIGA

[11] = tested on: NCI-H1975; test: Induction of apoptosis in human NCI-H1975 cells assessed as late apoptotic cells at 50 nM incubated for 24 hrs by propidium iodide and annexin-V FITC staining based flow cytometry (reference value: 0.23 %); format: functional
[12] = tested on: NCI-H1975; test: Inhibition of cell migration in human NCI-H1975 cells at 5 nM incubated for 24 hrs by phase contrast microscopy relative to control; format: functional; conditions: NCI-H1975, 24 h
[13] = tested on: NCI-H1975; test: Induction of apoptosis in human NCI-H1975 cells assessed as early apoptotic cells at 50 nM incubated for 48 hrs by propidium iodide and annexin-V FITC staining based flow cytometry (reference value: 0.95 %); format: functional
[14] = Selectivity index, ratio of IC50 for human HLF cells to IC50 for human NCI-H1975 cells expressing EGFR T790M/L858R mutant
[15] = tested on: NCI-H1975; test: Induction of apoptosis in human NCI-H1975 cells assessed as necrotic cells at 5 nM incubated for 48 hrs by propidium iodide and annexin-V FITC staining based flow cytometry (reference value: 0.01 %); format: functional
[16] = Tmax in ICR mouse at 10 mg/kg, po; format: ADME, organism-based; conditions: in vivo
[17] = MRT (0 to infinity) in ICR mouse at 5 mg/kg, iv; format: ADME, organism-based; conditions: in vivo
[18] = MRT (0 to t) in ICR mouse at 10 mg/kg, po; format: ADME, organism-based; conditions: in vivo
[19] = Cytotoxicity against human HEK293A cells expressing EGFR assessed as reduction in cell viability incubated for 72 hrs by MTT assay; format: cell-based, HEK293-A; conditions: hek293-a
[20] = Cytotoxicity against human HLF cells expressing EGFR assessed as reduction in cell viability incubated for 72 hrs by MTT assay; format: cell-based
[21] = tested on: NCI-H1975; test: Induction of apoptosis in human NCI-H1975 cells assessed as viable cells at 25 nM incubated for 48 hrs by propidium iodide and annexin-V FITC staining based flow cytometry (reference value: 99.05 %); format: functional; conditions: NCI-H1975, 48 h, read-out: Activity
[22] = tested on: NCI-H1975; test: Induction of apoptosis in human NCI-H1975 cells assessed as late apoptotic cells at 50 nM incubated for 72 hrs by propidium iodide and annexin-V FITC staining based flow cytometry (reference value: 0.01 %); format: functional
[23] = tested on: NCI-H1975; test: Induction of apoptosis in human NCI-H1975 cells assessed as late apoptotic cells at 5 nM incubated for 72 hrs by propidium iodide and annexin-V FITC staining based flow cytometry (reference value: 0.01 %); format: functional
[24] = tested on: NCI-H1975; test: Induction of apoptosis in human NCI-H1975 cells assessed as viable cells at 5 nM incubated for 24 hrs by propidium iodide and annexin-V FITC staining based flow cytometry (reference value: 98.82 %); format: functional; conditions: NCI-H1975, 24 h, read-out: Activity
[25] = tested on: NCI-H1975; test: Induction of apoptosis in human NCI-H1975 cells assessed as late apoptotic cells at 5 nM incubated for 48 hrs by propidium iodide and annexin-V FITC staining based flow cytometry (reference value: 0.23 %); format: functional
[26] = tested on: NCI-H1975; test: Induction of apoptosis in human NCI-H1975 cells assessed as early apoptotic cells at 5 nM incubated for 48 hrs by propidium iodide and annexin-V FITC staining based flow cytometry (reference value: 0.95 %); format: functional
[27] = AUC (0 to infinity) in ICR mouse at 5 mg/kg, iv; format: ADME, organism-based; design: dose 5 mg/kg, time infinity, route intravenous; conditions: in vivo
[28] = target: Epidermal growth factor receptor (Homo sapiens, UniProt P00533, L858R/T790M); test: Inhibition of EGFR T790M/L858R mutant in human NCI-H1975 cells assessed as reduction in EGFR Y1068 phosphorylation incubated for 4 hrs by Western blot analysis; format: cell-based
Chain of Epidermal growth factor receptor (Homo sapiens, UniProt P00533, L858R/T790M) (P00533 whole entry T790M/L858R, looked up): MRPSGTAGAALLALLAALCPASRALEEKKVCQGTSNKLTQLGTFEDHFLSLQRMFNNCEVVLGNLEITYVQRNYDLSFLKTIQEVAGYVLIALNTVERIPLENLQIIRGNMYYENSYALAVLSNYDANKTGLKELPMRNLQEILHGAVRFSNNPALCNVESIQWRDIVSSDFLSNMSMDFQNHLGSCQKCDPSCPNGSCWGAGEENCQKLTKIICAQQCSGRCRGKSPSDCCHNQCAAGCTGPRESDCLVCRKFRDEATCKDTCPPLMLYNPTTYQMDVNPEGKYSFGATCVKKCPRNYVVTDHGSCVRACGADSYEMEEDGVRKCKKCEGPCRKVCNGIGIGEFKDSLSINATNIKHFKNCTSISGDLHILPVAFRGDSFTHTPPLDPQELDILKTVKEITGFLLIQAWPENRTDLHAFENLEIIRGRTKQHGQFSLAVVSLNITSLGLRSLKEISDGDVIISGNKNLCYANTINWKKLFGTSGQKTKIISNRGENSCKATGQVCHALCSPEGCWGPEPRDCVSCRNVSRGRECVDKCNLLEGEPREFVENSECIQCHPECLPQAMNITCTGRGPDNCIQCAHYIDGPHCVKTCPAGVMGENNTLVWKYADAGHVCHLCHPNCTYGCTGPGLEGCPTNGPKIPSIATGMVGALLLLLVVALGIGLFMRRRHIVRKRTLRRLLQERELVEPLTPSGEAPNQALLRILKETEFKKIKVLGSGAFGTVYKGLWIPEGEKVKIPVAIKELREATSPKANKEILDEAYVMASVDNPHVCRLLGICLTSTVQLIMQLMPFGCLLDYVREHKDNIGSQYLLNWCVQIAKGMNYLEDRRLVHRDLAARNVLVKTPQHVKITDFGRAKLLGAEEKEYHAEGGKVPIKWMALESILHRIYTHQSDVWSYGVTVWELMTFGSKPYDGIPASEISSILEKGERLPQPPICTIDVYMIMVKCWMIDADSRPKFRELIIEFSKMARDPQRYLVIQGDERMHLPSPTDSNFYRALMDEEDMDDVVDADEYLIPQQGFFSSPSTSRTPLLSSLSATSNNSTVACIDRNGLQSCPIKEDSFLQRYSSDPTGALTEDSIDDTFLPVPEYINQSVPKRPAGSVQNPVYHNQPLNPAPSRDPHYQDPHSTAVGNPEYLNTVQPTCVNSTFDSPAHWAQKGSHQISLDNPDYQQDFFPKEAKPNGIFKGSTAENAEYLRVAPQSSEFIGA

[29] = MRT (0 to infinity) in ICR mouse at 10 mg/kg, po; format: ADME, organism-based; conditions: in vivo
[30] = Tmax in ICR mouse at 5 mg/kg, iv; format: ADME, organism-based; conditions: in vivo
[31] = Selectivity index, ratio of IC50 for human HEK293A cells to IC50 for human NCI-H1975 cells expressing EGFR T790M/L858R mutant; format: toxicity
[32] = tested on: NCI-H1975; test: Induction of apoptosis in human NCI-H1975 cells assessed as necrotic cells at 25 nM incubated for 72 hrs by propidium iodide and annexin-V FITC staining based flow cytometry (reference value: 0.01 %); format: functional
[33] = Clearance in ICR mouse at 5 mg/kg, iv; format: ADME, organism-based; conditions: in vivo
[34] = tested on: NCI-H1975; test: Induction of apoptosis in human NCI-H1975 cells assessed as late apoptotic cells at 5 nM incubated for 24 hrs by propidium iodide and annexin-V FITC staining based flow cytometry (reference value: 0.23 %); format: functional
[35] = Oral bioavailability in ICR mouse at 10 mg/kg; format: ADME, organism-based; conditions: in vivo

## C=CC(=O)Nc1cc(Nc2nccc(-c3cn(C)c4ccccc34)n2)c(OC)cc1[S+]([O-])CCN(C)C (single isomer, unassigned; (-))
[1]
  viability at 0.025 µM: 76.8%
[2]
  Activity: 0.32%
[3]
  viability at 0.005 µM: 57.5%
[4]
  Activity: 29.59%
[5]
  Activity: 22.23%
[6]
  AUC(0-inf): 2000 ng·h/mL
[7]
  Activity: 2.73%
[8]
  half-life: 1.73 h
[9]
  Ratio IC50: >1000
[10]
  IC50: 4 nM
[11]
  Activity: 2.3%
[12]
  inhibition at 0.005 µM: 45.1%
[13]
  Activity: 56.02%
[14]
  Ratio IC50: 910
[15]
  Activity: 0.05%
[16]
  Tmax: 0.5 h
[17]
  MRT inf: 1.21 h
[18]
  MRT last: 2.32 h
[19]
  IC50: 1920 nM
[20]
  IC50: 9140 nM
[21]
  viability at 0.025 µM: 44.7%
[22]
  Activity: 30.74%
[23]
  Activity: 18.71%
[24]
  viability at 0.005 µM: 83.6%
[25]
  Activity: 0.06%
[26]
  Activity: 22.89%
[27]
  AUC(0-inf): 1300 ng·h/mL
[28]
  EC50: 7.06 nM
[29]
  MRT inf: 2.68 h
[30]
  Tmax: 4.8 min
[31]
  Ratio IC50: 192
[32]
  Activity: 1.85%
[33]
  clearance: 63.9 mL/min/kg
[34]
  Activity: 1.17%
[35]
  bioavailability: 73.7%
